Reference: patent publication US20250002471A1 (Gilead Sciences, Inc., priority 2020, published 2025)

How the values were obtained:
[1] = biological target: T1, TLR7 (Homo sapiens, UniProt Q9NYK1); assay: Human PBMC cell-based assay, TLR7 agonist GS-986 stimulation, cytokine (IL-6 and IFNα) readout; conditions: human PBMCs, GS-986 400 nM, 6 hours; Table 26; read-out: TLR-7 EC50
T1 construct: lymphocytes, monocytes and dendritic cells that express TLR7, TLR8 and TLR9; endogenous in cells; host or cells: human PBMCs from healthy donors
T1 sequence (Q9NYK1 27-1049): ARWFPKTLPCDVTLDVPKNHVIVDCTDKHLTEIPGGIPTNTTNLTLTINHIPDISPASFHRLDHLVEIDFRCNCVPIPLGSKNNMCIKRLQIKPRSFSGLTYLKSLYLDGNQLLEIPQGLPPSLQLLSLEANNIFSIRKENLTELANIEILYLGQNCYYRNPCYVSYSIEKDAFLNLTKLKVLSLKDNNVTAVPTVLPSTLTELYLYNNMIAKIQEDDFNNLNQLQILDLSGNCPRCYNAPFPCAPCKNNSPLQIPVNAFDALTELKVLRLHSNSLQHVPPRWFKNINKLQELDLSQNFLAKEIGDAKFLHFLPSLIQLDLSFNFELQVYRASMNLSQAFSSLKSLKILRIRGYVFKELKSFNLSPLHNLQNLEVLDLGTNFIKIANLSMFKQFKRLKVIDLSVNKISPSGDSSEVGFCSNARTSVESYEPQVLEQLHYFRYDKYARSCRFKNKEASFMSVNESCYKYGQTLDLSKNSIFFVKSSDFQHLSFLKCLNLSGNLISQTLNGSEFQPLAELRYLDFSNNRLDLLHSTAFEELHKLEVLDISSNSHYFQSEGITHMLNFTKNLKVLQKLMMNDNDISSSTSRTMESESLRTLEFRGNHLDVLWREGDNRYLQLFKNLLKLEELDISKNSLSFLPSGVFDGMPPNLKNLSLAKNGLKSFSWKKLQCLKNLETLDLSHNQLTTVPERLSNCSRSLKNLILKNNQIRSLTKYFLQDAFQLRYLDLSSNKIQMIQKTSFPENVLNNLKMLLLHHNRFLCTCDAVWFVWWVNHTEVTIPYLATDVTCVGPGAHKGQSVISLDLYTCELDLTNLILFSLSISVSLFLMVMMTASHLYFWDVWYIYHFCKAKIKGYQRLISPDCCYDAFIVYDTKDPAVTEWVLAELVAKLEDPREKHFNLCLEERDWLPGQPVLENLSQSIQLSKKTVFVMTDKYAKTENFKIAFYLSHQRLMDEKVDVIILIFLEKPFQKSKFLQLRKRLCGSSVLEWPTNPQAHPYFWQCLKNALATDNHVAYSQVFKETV
Source text: (§1) Human peripheral blood mononuclear cells (PBMCs) consist of lymphocytes, monocytes and dendritic cells that express TLR7, TLR8 and TLR9. These cells respond to TLR7, TLR8 and TLR9 ligand stimulation and produce cytokines and chemokines in vitro and in vivo. Human PBMCs are therefore suitable to be used in a cell-based assay to assess the in vitro potency of a TLR 7, 8, and/or 9 antagonist. The result is expected to be more translatable to the pharmacodynamics response in vivo than cell line-based assays.
(§2) Cryopreserved human PBMCs from healthy donors were thawed and resuspended in RPMI-1640 media with L-glutamine (Corning) supplemented with 10% Fetal Bovine Serum (Hyclone) and 1X Penicillin-Streptomycin (Corning). After counting, the cell density was adjusted to 2 million cells/ml and incubated for 1 hour at 37° C., 5% CO2 for recovery. Following the recovery, the cells were plated by adding 50p per well (100,000 cells) to 384-well cell culture plates (Greiner) containing 250nl of test antagonists in 100% DMSO per well, in a 10 points dose response in quadruplicates. PBMCs were incubated in the presence of test antagonists for one hour at 37° C., 5% CO2 before being stimulated with a TLR7 or TLR9 agonist. GS-986 (Gilead Sciences) was used as the TLR7 agonist at a final concentration of 400 nM. ODN-2216 (InvivoGen) was used as the TLR9 agonist at a final concentration of 3μM. PBMCs were incubated in the presence of the test antagonist and the TLR7 (or TLR9) agonist for an additional 6 hours at 37° C., 5% CO2. At the end of the incubation, the cell culture plates were centrifuged at 500 g for 5 min, and the cell culture supernatant was collected. The level of cytokines (IL-6 and IFNα) in the supernatant was measured by electrochemiluminescence immunoassays (Mesoscale Discovery) following manufacturer's recommended protocols. The level of cytokine measured was plotted against the test antagonist concentration and fitted to a sigmoidal function to determine the EC50, which are shown below in Table 26.

[2] = biological target: T2, TLR9 (Homo sapiens, UniProt Q9NR96); assay: Human PBMC cell-based assay, TLR9 agonist ODN-2216 stimulation, cytokine (IL-6 and IFNα) readout; conditions: human PBMCs, ODN-2216 3 μM, 6 hours; Table 26; read-out: TLR-9 EC50
T2 construct: lymphocytes, monocytes and dendritic cells that express TLR7, TLR8 and TLR9; endogenous in cells; host or cells: human PBMCs from healthy donors
T2 sequence (Q9NR96 26-1032): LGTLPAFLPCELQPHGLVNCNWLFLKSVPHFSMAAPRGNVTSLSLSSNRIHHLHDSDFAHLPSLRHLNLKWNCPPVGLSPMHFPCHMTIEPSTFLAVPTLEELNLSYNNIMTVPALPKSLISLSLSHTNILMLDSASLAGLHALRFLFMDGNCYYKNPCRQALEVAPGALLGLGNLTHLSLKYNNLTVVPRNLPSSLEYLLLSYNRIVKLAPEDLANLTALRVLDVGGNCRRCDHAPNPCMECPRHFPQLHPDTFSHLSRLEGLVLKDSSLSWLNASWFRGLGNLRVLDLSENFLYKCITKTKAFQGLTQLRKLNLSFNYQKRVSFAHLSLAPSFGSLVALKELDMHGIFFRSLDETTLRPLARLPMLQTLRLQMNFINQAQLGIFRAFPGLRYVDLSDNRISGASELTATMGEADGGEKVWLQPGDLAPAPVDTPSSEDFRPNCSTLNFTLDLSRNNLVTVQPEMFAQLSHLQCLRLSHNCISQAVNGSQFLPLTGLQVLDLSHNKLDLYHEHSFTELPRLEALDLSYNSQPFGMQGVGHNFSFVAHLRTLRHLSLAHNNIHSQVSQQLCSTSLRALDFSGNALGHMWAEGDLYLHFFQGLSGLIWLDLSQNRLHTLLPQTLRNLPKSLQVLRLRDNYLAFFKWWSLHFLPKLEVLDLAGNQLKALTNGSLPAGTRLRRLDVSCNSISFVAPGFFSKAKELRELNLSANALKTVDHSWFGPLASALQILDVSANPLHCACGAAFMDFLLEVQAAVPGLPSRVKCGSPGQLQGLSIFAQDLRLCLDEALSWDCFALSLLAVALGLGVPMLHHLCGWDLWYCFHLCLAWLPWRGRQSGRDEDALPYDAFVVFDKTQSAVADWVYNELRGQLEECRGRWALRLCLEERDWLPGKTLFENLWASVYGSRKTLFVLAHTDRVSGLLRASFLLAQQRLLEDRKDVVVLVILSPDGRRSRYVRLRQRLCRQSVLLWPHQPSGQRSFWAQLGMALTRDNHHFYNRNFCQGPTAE
Source text: as §1, §2

EC50 [1] [nM] | EC50 [2] [nM] | Structure (SMILES)
12 | 1920 | CCc1c(-c2cc(C)c3ncnn3c2)[nH]c2cc(C3CCNCC3)ccc12 [Example 52]
1390 | 69.4 | Cc1cc(-c2[nH]c3cc(C4CCNC4)ccc3c2C)cc(C)n1 (stereo not drawn) [Example 54]
374 | 3040 | COc1cc(-c2ccc3c(C)c(-c4cc(C)nc(C)c4)[nH]c3c2)ccn1 [Example 56, 2-(2,6-dimethylpyridin-4-yl)-6-(2-methoxypyridin-4-yl)-3-methyl-1H-indole]
200 | 306 | Cc1cc(-c2[nH]c3cc(-c4ccn5ccnc5c4)ccc3c2C)cc(C)n1 [Example 57]
373 | 1130 | Cc1cc(-c2[nH]c3cc(-c4ccn5ncnc5c4)ccc3c2C)cc(C)n1 [Example 58]
809 | 1780 | Cc1cc(-c2[nH]c3cc(-c4ccnc(N5CCOCC5)c4)ccc3c2C)cc(C)n1 [Example 59, 4-(4-(2-(2,6-dimethylpyridin-4-yl)-3-methyl-1H-indol-6-yl)pyridin-2-yl)morpholine]
270 | 110 | Cc1cc(-c2[nH]c3cc(-c4ccnc(N5CCN(C)CC5)c4)ccc3c2C)cc(C)n1 [Example 60, 2-(2,6-dimethylpyridin-4-yl)-3-methyl-6-(2-(4-methylpiperazin-1-yl)pyridin-4-yl)-1H-indole]
886 | 601 | Cc1cc(-c2[nH]c3cc(-c4ccnc(N(C)C)c4)ccc3c2C)cc(C)n1 [Example 61]
607 | 180 | Cc1cc(-c2[nH]c3cc(-c4cccc5c4CCNC5)ccc3c2C)cc(C)n1 [Example 62, 5-(2-(2,6-dimethylpyridin-4-yl)-3-methyl-1H-indol-6-yl)-1,2,3,4-tetrahydroisoquinoline]
4.8 | 189 | Cc1cc(-c2[nH]c3cc(-c4ccc(N5CCNCC5)nc4)ccc3c2C2CC2)cc(C)n1 [Example 63, 3-cyclopropyl-2-(2,6-dimethylpyridin-4-yl)-6-(6-(piperazin-1-yl)pyridin-3-yl)-1H-indole]
15.3 | 63.2 | Cc1cc(-c2[nH]c3cc(-c4cnc(N5CCNCC5)nc4)ccc3c2C)cc(C)n1 [Example 65]

The next lines start with the compound.

Structure (SMILES) | EC50 [1] [nM] | EC50 [2] [nM]
Cc1cc(-c2[nH]c3cc(-c4ccc(N5C[C@H]6CC[C@@H](C5)[C@H]6N)nc4)ccc3c2C)cc(C)n1 [Example 27] | 196 | 55.2
Cc1cc(-c2[nH]c3cc(-c4ccc(N5C[C@H]6CC[C@@H](C5)[C@@H]6N)nc4)ccc3c2C)cc(C)n1 [Example 28] | 63 | 69.9
Cc1cc(-c2[nH]c3cc(-c4ccc(N5CC6(CNCCO6)C5)nc4)ccc3c2C)cc(C)n1 [Example 29] | 31.6 | 122
CNCCN(C)c1ccc(-c2ccc3c(C)c(-c4cc(C)nc(C)c4)[nH]c3c2)cn1 [Example 30] | 24.1 | 55.8
Cc1cc(-c2[nH]c3cc(-c4ccc(N5CC[C@@H](N)C5)nc4)ccc3c2C)cc(C)n1 [Example 31] | 8.3 | 13.5
Cc1cc(-c2[nH]c3cc(-c4ccc(N5CC[C@H](N)C5)nc4)ccc3c2C)cc(C)n1 [Example 32] | 17.7 | 37.3
Cc1cc(-c2[nH]c3cc(-c4ccc(N5CC[C@H]6CNC[C@H]65)nc4)ccc3c2C)cc(C)n1 [Example 33] | 51 | 79.9
Cc1cc(-c2[nH]c3cc(-c4ccc(N5CC6CNCC6C5)nc4)ccc3c2C)cc(C)n1 (stereo not drawn) [Example 34] | 17.7 | 83.4
Cc1cc(-c2[nH]c3cc(-c4ccc(N5CCN(C6COC6)CC5)nc4)ccc3c2C)cc(C)n1 [Example 38] | 273 | 382
Cc1cc(-c2[nH]c3cc(-c4ccc(N5CCN(CCO)C(=O)C5)nc4)ccc3c2C)cc(C)n1 [Example 39] | 26.4 | 310
Cc1cc(-c2[nH]c3cc(-c4ccc(N5CCN(C)CC5)nc4)ccc3c2C)cc(C)n1 [Example 41, 2-(2,6-dimethylpyridin-4-yl)-3-methyl-6-(6-(4-methylpiperazin-1-yl)pyridin-3-yl)-1H-indole] | 12.9 | 69.6
Cc1cc(-c2[nH]c3cc(-c4ccc(S(=O)(=O)C5CCNCC5)cc4)ccc3c2C)cc(C)n1 [Example 42] | 150 | 106
Cc1cc(-c2[nH]c3cc(-c4ccc5[nH]cnc5c4)ccc3c2C)cc(C)n1 [Example 44] | 121 | 242
Cc1cc(-c2[nH]c3cc(-c4cnc5[nH]c(C)nc5c4)ccc3c2C)cc(C)n1 [Example 45] | 331 | 621
Cc1cc(-c2[nH]c3cc(-c4cnc5c(c4)ncn5C)ccc3c2C)cc(C)n1 [Example 46] | 183 | 1070
Cc1cc(-c2[nH]c3cc(-c4ccc5cccnc5c4)ccc3c2C)cc(C)n1 [Example 47] | 652 | 400
CCc1c(-c2cc(C)nc(C)c2)[nH]c2cc(C3CCNCC3)ccc12 [Example 49, 2-(2,6-dimethylpyridin-4-yl)-3-ethyl-6-(piperidin-4-yl)-1H-indole] | 549 | 358
Cc1cc(-c2[nH]c3cc(C4CCNCC4)ccc3c2C(C)C)cc(C)n1 [Example 50, 2-(2,6-dimethylpyridin-4-yl)-3-isopropyl-6-(piperidin-4-yl)-1H-indole] | 222 | 784
Cc1c(-c2cc(C)c3ncnn3c2)[nH]c2cc(C3CCNCC3)ccc12 [Example 51] | 35.8 | 1670
